Holding throughout (format): functional
In test [1] the test system is Enterococcus faecium. Put plainly: Antibacterial activity against vancomycin-resistant Enterococcus faecium 0649 assessed as reduction in bacterial growth by measuring fold change at 0.0625 to 64 ug/ml incubated for 24 hrs by CLSI protocol based broth microdilution method relative to vancomycin. The settings on record: dose 0.0625-64 µg/ml. In general terms: Dilution methods test growth across graded concentrations, often in twofold steps.

Test [2] concerns Staphylococcus aureus. Nature of the test: Antibacterial activity against methicillin sensitive Staphylococcus aureus clinical isolate 20-45 assessed as inhibition of bacterial growth incubated for 24 hrs by CLSI protocol based broth microdilution method.
The test system of test [3] is Staphylococcus aureus. Nature of the test: Antibacterial activity against methicillin sensitive Staphylococcus aureus ATCC29213 assessed as inhibition of bacterial growth incubated for 24 hrs by CLSI protocol based broth microdilution method.
For test [4], the system named is Enterococcus faecium. Nature of the test: Antibacterial activity against Enterococcus faecium clinical isolate 20-16 assessed as inhibition of bacterial growth incubated for 24 hrs by CLSI protocol based broth microdilution method.
The subject of test [5] is Staphylococcus epidermidis. Put plainly: Antibacterial activity against methicillin sensitive Staphylococcus epidermidis clinical isolate 20-1 assessed as inhibition of bacterial growth incubated for 24 hrs by CLSI protocol based broth microdilution method.
For test [6], the system named is Enterococcus faecalis. Nature of the test: Antibacterial activity against Enterococcus faecalis clinical isolate 20-11 assessed as inhibition of bacterial growth incubated for 24 hrs by CLSI protocol based broth microdilution method.
In test [7] the test system is Streptococcus pneumoniae. Nature of the test: Antibacterial activity against Streptococcus pneumoniae ATCC49619 assessed as inhibition of bacterial growth incubated for 24 hrs by CLSI protocol based broth microdilution method.
Test [8] concerns Enterococcus faecium. Put plainly: Antibacterial activity against Enterococcus faecium clinical isolate 20-15 assessed as inhibition of bacterial growth incubated for 24 hrs by CLSI protocol based broth microdilution method.
For test [9], the system named is Staphylococcus aureus. Nature of the test: Antibacterial activity against vancomycin-intermediate resistant Staphylococcus aureus Mu50 assessed as reduction in bacterial growth by measuring fold change at 0.0625 to 64 ug/ml incubated for 24 hrs by CLSI protocol based broth microdilution method relative to vancomycin. The settings on record: dose 0.0625-64 µg/ml.

Test [10] concerns Streptococcus pneumoniae. Nature of the test: Antibacterial activity against penicillin susceptible Streptococcus pneumoniae clinical isolate 20-1 assessed as inhibition of bacterial growth incubated for 24 hrs by CLSI protocol based broth microdilution method.
Test [11] deals with Staphylococcus aureus. Put plainly: Antibacterial activity against methicillin sensitive Staphylococcus aureus Newman assessed as inhibition of bacterial growth incubated for 24 hrs by CLSI protocol based broth microdilution method.
For test [12], the system named is Staphylococcus aureus. Nature of the test: Antibacterial activity against methicillin resistant Staphylococcus aureus USA300 assessed as inhibition of bacterial growth incubated for 24 hrs by CLSI protocol based broth microdilution method.
Test [13] has as its system Enterococcus faecalis. Nature of the test: Antibacterial activity against vancomycin resistant Enterococcus faecalis clinical isolate 20-1 assessed as inhibition of bacterial growth incubated for 24 hrs by CLSI protocol based broth microdilution method.
In test [14] the test system is Staphylococcus aureus. Put plainly: Antibacterial activity against vancomycin-intermediate resistant Staphylococcus aureus ATCC700699 assessed as inhibition of bacterial growth incubated for 24 hrs by CLSI protocol based broth microdilution method.

Converted amounts (≈) assume the structure as drawn.

As for `CN[C@H](CC(C)C)C(=O)N[C@H]1C(=O)N[C@@H](CC(N)=O)C(=O)N[C@H]2C(=O)N[C@H]3C(=O)N[C@H](C(=O)N[C@H](C(=O)O)c4cc(O)c(CN(C)Cc5cn(-c6cccc(NC(=O)OC(C)(C)C)c6)nn5)c(O)c4-c4cc3ccc4O)[C@H](O)c3ccc(c(Cl)c3)Oc3cc2cc(c3O[C@@H]2O[C@H](CO)[C@@H](O)[C@H](O)[C@H]2O[C@H]2C[C@](C)(NCc3ccccc3Oc3ccccc3)[C@H](O)[C@H](C)O2)Oc2ccc(cc2Cl)[C@H]1O`, the “fold change (FC)” value with Enterococcus faecium [1] is 8.

Take `CN[C@H](CC(C)C)C(=O)N[C@H]1C(=O)N[C@@H](CC(N)=O)C(=O)N[C@H]2C(=O)N[C@H]3C(=O)N[C@H](C(=O)N[C@H](C(=O)O)c4cc(O)c(CN(C)Cc5cn(-c6cccc(NC(=O)OC(C)(C)C)c6)nn5)c(O)c4-c4cc3ccc4O)[C@H](O)c3ccc(c(Cl)c3)Oc3cc2cc(c3O[C@@H]2O[C@H](CO)[C@@H](O)[C@H](O)[C@H]2O[C@H]2C[C@](C)(NCc3cccc(-c4cc(F)ccc4F)n3)[C@H](O)[C@H](C)O2)Oc2ccc(cc2Cl)[C@H]1O`: the “fold change (FC)” value in the test with Enterococcus faecium [1] is recorded as 8.

On to `CN[C@H](CC(C)C)C(=O)N[C@H]1C(=O)N[C@@H](CC(N)=O)C(=O)N[C@H]2C(=O)N[C@H]3C(=O)N[C@H](C(=O)N[C@H](C(=O)O)c4cc(O)c(CN(C)Cc5cn(-c6cccc(NC(=O)OC(C)(C)C)c6)nn5)c(O)c4-c4cc3ccc4O)[C@H](O)c3ccc(c(Cl)c3)Oc3cc2cc(c3O[C@@H]2O[C@H](CO)[C@@H](O)[C@H](O)[C@H]2O[C@H]2C[C@](C)(NCc3ccccc3-c3ccccc3)[C@H](O)[C@H](C)O2)Oc2ccc(cc2Cl)[C@H]1O`, for which the “fold change (FC)” value in the test on Enterococcus faecium [1] was determined as 8.

A word on the MIC: it is the least concentration at which growth counts as inhibited. As to `CN[C@H](CC(C)C)C(=O)N[C@H]1C(=O)N[C@@H](CC(N)=O)C(=O)N[C@H]2C(=O)N[C@H]3C(=O)N[C@H](C(=O)N[C@H](C(=O)O)c4cc(O)cc(O)c4-c4cc3ccc4O)[C@H](O)c3ccc(c(Cl)c3)Oc3cc2cc(c3O[C@@H]2O[C@H](CO)[C@@H](O)[C@H](O)[C@H]2O[C@H]2C[C@](C)(NCc3ccc(Oc4cc(Cl)cc(Cl)c4)cc3)[C@H](O)[C@H](C)O2)Oc2ccc(cc2Cl)[C@H]1O`, the minimum inhibitory concentration (MIC) was no more than 0.015 µg/mL in the test on Staphylococcus aureus [2]; no more than 0.015 µg/mL in the test with Staphylococcus aureus [3]; 0.03 µg/mL (≈ 0.0176 µM) in the test on Enterococcus faecium [4]; no more than 0.015 µg/mL in [5]; no more than 0.015 µg/mL in the test on Enterococcus faecalis [6]; no more than 0.015 µg/mL in the test with Streptococcus pneumoniae [7]. Further, the minimal inhibitory concentration (MIC) in the test on Enterococcus faecium [8] is no more than 0.015 µg/mL; with Streptococcus pneumoniae [10], no more than 0.015 µg/mL; with Staphylococcus aureus [11], no more than 0.06 µg/mL; in the test on Staphylococcus aureus [12], no more than 0.06 µg/mL; with Enterococcus faecalis [13], 4 µg/mL (≈ 2.35 µM); in the test on Staphylococcus aureus [14], 0.125 µg/mL (≈ 0.0735 µM). The “fold change (FC)” value with Staphylococcus aureus [9] turned out to be 8; in the test on Enterococcus faecium [1], 16.

Consider `CN[C@H](CC(C)C)C(=O)N[C@H]1C(=O)N[C@@H](CC(N)=O)C(=O)N[C@H]2C(=O)N[C@H]3C(=O)N[C@H](C(=O)N[C@H](C(=O)O)c4cc(O)cc(O)c4-c4cc3ccc4O)[C@H](O)c3ccc(c(Cl)c3)Oc3cc2cc(c3O[C@@H]2O[C@H](CO)[C@@H](O)[C@H](O)[C@H]2O[C@H]2C[C@](C)(NCc3ccc(Cl)cc3Cl)[C@H](O)[C@H](C)O2)Oc2ccc(cc2Cl)[C@H]1O`, for which the “fold change (FC)” value in the test with Enterococcus faecium [1] is 8.

For `CN[C@H](CC(C)C)C(=O)N[C@H]1C(=O)N[C@@H](CC(N)=O)C(=O)N[C@H]2C(=O)N[C@H]3C(=O)N[C@H](C(=O)N[C@H](C(=O)O)c4cc(O)cc(O)c4-c4cc3ccc4O)[C@H](O)c3ccc(c(Cl)c3)Oc3cc2cc(c3O[C@@H]2O[C@H](CO)[C@@H](O)[C@H](O)[C@H]2O[C@H]2C[C@](C)(NCCCc3cn(C4CN(C(c5ccccc5)c5ccccc5)C4)nn3)[C@H](O)[C@H](C)O2)Oc2ccc(cc2Cl)[C@H]1O`, the minimal inhibitory concentration (MIC) with Staphylococcus aureus [2] is no more than 0.03 µg/mL; with Staphylococcus aureus [3], no more than 0.03 µg/mL; in the test with Enterococcus faecium [4], no more than 0.03 µg/mL; in test [5], no more than 0.03 µg/mL; in the test with Enterococcus faecalis [6], 0.06 µg/mL (≈ 0.0337 µM); with Streptococcus pneumoniae [7], no more than 0.03 µg/mL. For the same compound, the MIC with Enterococcus faecium [8] is no more than 0.03 µg/mL; with Streptococcus pneumoniae [10], no more than 0.03 µg/mL; with Staphylococcus aureus [11], no more than 0.015 µg/mL; in the test on Staphylococcus aureus [12] it was no more than 0.015 µg/mL; in the test on Enterococcus faecalis [13] it was 8 µg/mL (≈ 4.5 µM); in the test with Staphylococcus aureus [14], 0.5 µg/mL (≈ 0.281 µM). The “fold change (FC)” value with Staphylococcus aureus [9] and in the test on Enterococcus faecium [1] was 8 each time.

With `CN[C@H](CC(C)C)C(=O)N[C@H]1C(=O)N[C@@H](CC(N)=O)C(=O)N[C@H]2C(=O)N[C@H]3C(=O)N[C@H](C(=O)N[C@H](C(=O)O)c4cc(O)cc(O)c4-c4cc3ccc4O)[C@H](O)c3ccc(c(Cl)c3)Oc3cc2cc(c3O[C@@H]2O[C@H](CO)[C@@H](O)[C@H](O)[C@H]2O[C@H]2C[C@](C)(NCCCc3cn(-c4cccc(NC(=O)OC(C)(C)C)c4)nn3)[C@H](O)[C@H](C)O2)Oc2ccc(cc2Cl)[C@H]1O`, the “fold change (FC)” value in the test on Staphylococcus aureus [9] and in the test with Enterococcus faecium [1] was 8 throughout.

Regarding `CN[C@H](CC(C)C)C(=O)N[C@H]1C(=O)N[C@@H](CC(N)=O)C(=O)N[C@H]2C(=O)N[C@H]3C(=O)N[C@H](C(=O)N[C@H](C(=O)O)c4cc(O)cc(O)c4-c4cc3ccc4O)[C@H](O)c3ccc(c(Cl)c3)Oc3cc2cc(c3O[C@@H]2O[C@H](CO)[C@@H](O)[C@H](O)[C@H]2O[C@H]2C[C@](C)(NCc3ccc(-c4ccccc4)s3)[C@H](O)[C@H](C)O2)Oc2ccc(cc2Cl)[C@H]1O`, the “fold change (FC)” value is given as 8 in the test on Staphylococcus aureus [9] and 16 with Enterococcus faecium [1].

On to `CN[C@H](CC(C)C)C(=O)N[C@H]1C(=O)N[C@@H](CC(N)=O)C(=O)N[C@H]2C(=O)N[C@H]3C(=O)N[C@H](C(=O)N[C@H](C(=O)O)c4cc(O)cc(O)c4-c4cc3ccc4O)[C@H](O)c3ccc(c(Cl)c3)Oc3cc2cc(c3O[C@@H]2O[C@H](CO)[C@@H](O)[C@H](O)[C@H]2O[C@H]2C[C@](C)(NCCCc3cn(-c4ccc(OC(F)F)cc4)nn3)[C@H](O)[C@H](C)O2)Oc2ccc(cc2Cl)[C@H]1O`, for which the “fold change (FC)” value in the test with Staphylococcus aureus [9] and in the test with Enterococcus faecium [1] was 8 in each case.

As for `CN[C@H](CC(C)C)C(=O)N[C@H]1C(=O)N[C@@H](CC(N)=O)C(=O)N[C@H]2C(=O)N[C@H]3C(=O)N[C@H](C(=O)N[C@H](C(=O)O)c4cc(O)cc(O)c4-c4cc3ccc4O)[C@H](O)c3ccc(c(Cl)c3)Oc3cc2cc(c3O[C@@H]2O[C@H](CO)[C@@H](O)[C@H](O)[C@H]2O[C@H]2C[C@](C)(NCc3ccc(-c4ccc(C(F)(F)F)cc4)cc3)[C@H](O)[C@H](C)O2)Oc2ccc(cc2Cl)[C@H]1O`, the “fold change (FC)” value in the test on Staphylococcus aureus [9] is listed as 8; in the test on Enterococcus faecium [1], 16.

These data come from ChEMBL document CHEMBL5518226, “A Vancomycin-Templated DNA-Encoded Library for Combating Drug-Resistant Bacteria” (2024).
